Laboratory results: paper PMC9145393, “Design, Semisynthesis, and Estrogenic Activity of Lignan Derivatives from Natural Dibenzylbutyrolactones” (Pharmaceuticals, 2022)

How the values were obtained:
[1] = system: ER-dependent transcriptional activity in T47D-KBluc cells; test: ERE-luciferase reporter in T47D-KBluc cells, agonist assessment (absence of E2); format: cell-based, human
Method: Lactols (5) and (6) were tested as a mixture of the two epimers obtained.
Chemical screening was carried out by using T47D-KBluc cells, an ER+ BC cell line that is stably transfected with the pGL2.TATA.Inr.Luc.neo containing three ER-responsive elements (ERE). The T47D-KBluc cells were maintained in standard growth media as detailed above. Dosing media was further modified by reduction of DCC-FBS to 5%. […] Chemical screening was also carried out by using the triple negative BC cell line MDA-kb2 cells that stably expresses pMMTV.neo.luc gene, an AR- and GR-responsive reporter gene. […] The T47D-KBluc cells or the MDA-kb2 cells were seeded at 100,000 cells per well in 24-well plates (Nunclon, Sigma-Aldrich, Darmstadt, Germany ) and allowed to attach overnight. Then, the media was replaced with 1 mL/well of dosing media and test compounds incubated 24 h. Then, the cells were harvested in 100 µL passive lysis buffer (Promega, Madison, WI, USA) per well. The relative light units (RLUs), which correspond to luciferase activity from each sample, were measured by using Luciferase Assay Reagent (Promega) in a Clarity luminescence microplate reader (BIOTEK, Winooski, VT, USA). The RLUs from each sample were normalized by protein concentration and converted to fold induction with respect to vehicle-treated control. […] Then, the percent of efficacy (E) of each tested compound, as compared with Emax, was calculated. […] Data are expressed as mean ± SEM of triplicate independent experiments, where each treatment was assayed in triplicate. […] Duplicate plates were dosed in parallel to control the effects of compounds on cell viability. The protein concentration was measured in cell lysate using colorimetric assay reagent (BioRad, CA, USA).

rhERα-LBD = target: T1, rhERα-LBD (Homo sapiens, UniProt P03372); test: LanthaScreen TR-FRET competitive binding assay; details: 10-point competition curves; Mean ± SE; read-out: IC50 (inhibition of Fluormone tracer binding to rhERα)
T1 sequence (P03372 311-547 limits assumed): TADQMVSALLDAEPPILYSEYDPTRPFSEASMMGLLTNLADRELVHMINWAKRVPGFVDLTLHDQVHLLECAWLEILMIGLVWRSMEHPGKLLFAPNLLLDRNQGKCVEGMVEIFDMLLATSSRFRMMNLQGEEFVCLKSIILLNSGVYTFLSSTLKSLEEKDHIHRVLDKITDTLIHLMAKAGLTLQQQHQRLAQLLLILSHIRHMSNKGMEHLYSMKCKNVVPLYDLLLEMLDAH
Method: Next, the binding of lignan derivatives to the LBD of rhERα was analyzed by using time-resolved fluorescence resonance energy transfer (TR-FRET) competitive binding assay. […] The LanthaScreen^TM TR-FRET Nuclear Receptor (NR) binding assay (SelectScreen^TM Profiling Service, Life Technologies, Carlsbad, CA, USA) was used for screening of potential binding of lignan derivatives to human ERα [33]. Briefly, the kit uses the recombinant human ERα (rhERα) protein and a tight binding, selective fluorescent ligand, Fluormone^TM tracer. […] The rhERα protein and the tracer form rhERα/tracer complex, resulting in a high FP value. […] Dose-response competition curves were fitted by nonlinear regression analyses in the GraphPad software 8 (GraphPad Software, San Diego, CA, USA) to obtain IC50 values.
Data are expressed as mean ± SEM for from at least three independent experiments, where each concentration is tested in triplicate.

T47D cells = test: MTT cell viability, E2-depleted T47D cells; format: cell-based, human; details: 10 μM, 24 h, absence of E2
Method: (§1) The effects of lignan derivatives were evaluated on human ER+ BC cells.
(§2) Cells were maintained in RPMI (Lonza, Basel, Switzerland) growth media, without phenol red, supplemented with 10% fetal bovine serum (FBS) (Lonza), 2 mM glutamine, 10 mM HEPES, 1 mM sodium pyruvate, 100 UI/mL penicillin and 100 μg/mL streptomycin. Cells were growth in a humidified incubator with 5% CO2 at 37 °C.
(§3) The cells were maintained in standard growth media as detailed above and seeded at exponential growth density (6000 cells per well) in 96-well plates (BD Falcon, France). The cells were then treated with vehicle or tests compounds (from 0.01 μM to 10 μM) for 24–72 h. The mitochondrial metabolization of the tetrazolium salt 3-(4,5-methyltiazol-2yl-)-2,5diphenyl-tetrazolium bromide] (MTT) (Applichen, Darmstadt, Germany) was used as an indicator of cell viability.
(§4) Figure 6 Effects of lignans on ER+ breast cancer cell viability. […] Then, the mitochondrial metabolization of MTT was used as an indicator of cell viability, as described in the Material and Methods. Data are expressed as mean ± SEM for at least three independent experiments, where each concentration is tested in triplicate. * p < 0.05, ** p < 0.01, and *** p < 0.001 versus VEH-treated cells.

[2] = target: T2, ERα from rat uterine cytosol (RUC) (Rattus norvegicus, UniProt P06211); test: Rat uterine cytosol competitive radioligand ([3H]E2) binding assay
T2 construct: from tissue
T2 sequence (P06211 1-600): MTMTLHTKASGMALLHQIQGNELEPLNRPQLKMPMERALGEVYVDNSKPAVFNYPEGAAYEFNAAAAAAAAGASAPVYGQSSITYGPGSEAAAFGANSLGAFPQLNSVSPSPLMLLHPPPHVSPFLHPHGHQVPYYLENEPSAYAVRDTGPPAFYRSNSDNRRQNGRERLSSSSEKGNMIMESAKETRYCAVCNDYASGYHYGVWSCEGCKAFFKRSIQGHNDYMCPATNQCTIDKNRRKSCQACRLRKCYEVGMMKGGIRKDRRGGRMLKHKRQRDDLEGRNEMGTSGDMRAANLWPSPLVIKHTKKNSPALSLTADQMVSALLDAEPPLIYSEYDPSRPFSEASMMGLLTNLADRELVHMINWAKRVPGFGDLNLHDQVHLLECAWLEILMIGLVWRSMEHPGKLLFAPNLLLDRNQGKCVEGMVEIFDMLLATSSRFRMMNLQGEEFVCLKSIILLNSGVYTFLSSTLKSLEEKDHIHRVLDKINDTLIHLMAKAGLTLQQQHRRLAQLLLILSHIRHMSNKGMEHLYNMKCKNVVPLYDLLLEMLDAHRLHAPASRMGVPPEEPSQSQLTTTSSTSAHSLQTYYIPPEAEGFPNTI

T47D and MCF7 cells = test: MTT cell viability, E2 non-depleted T47D and MCF7 cells, 72 h; format: cell-based, human; details: 10 μM, maximum reduction
Method: as §1, §2, §3, §4

COc1ccc(C[C@@H](C)[C@H](C)Cc2ccc(O)c(O)c2)cc1OC [Compound 14, 4-((2R,3R)-4-(3,4-Dimethoxyphenyl)-2,3-dimethylbutyl)benzene-1,2-diol]
E/Emax (%) VEH [1]: weak estrogenic activity
Emax ([1]; Homo sapiens, read-out: E/Emax (%) VEH): 21.7 ± 4.12%
IC50 (rhERα-LBD): 160 ± 110 nM
reduction of cell viability (T47D cells): reduced cell viability
IC50 [2]: 3960 ± 980 nM
reduction of cell viability (T47D and MCF7 cells): 33.4%
